These are literature values, as cited in patent EP0116853A1, “Pyridazinones, processes for preparing them, therapeutical compositions containing these compounds and their use” (BASF Aktiengesellschaft, priority 1983, dated 1984).

The conditions of the data set: in contrast to the corresponding 4,5-dihydro compound.

On to `CC(=O)Nc1ccc(-c2n[nH]c(=O)cc2C)cc1` [6-(p-Acetylamino-phenyl)-5-methyl-3(2H)-pyridazinon], for which the “blutdrucksenkende Wirkung” value is reported as “keine blutdrucksenkende Wirkung”.
